According to patent publication US20250368623A1, “PYRIDAZINONE-DERIVED COMPOUNDS FOR THE MODULATION OF MYC AND FOR MEDICAL USES” (GENETIC INTELLIGENCE, INC, priority 2022, published 2025):

Tests used:
HepG2 [1] = assay: CellTiter-Glo 2.0 cell viability assay, HepG2; format: cell-based; conditions: Homo sapiens, 48 h; CellTiter-Glo 2.0, HepG2, 2-day incubation
Description: (§2) The effect of test compounds on cell viability is also determined using the CellTiter-Glo 2.0 assay kit (Promega G9241) according to the following protocol. The human cancer cell line (e.g., HepG2) and a non-cancer human cell line (e.g., HEK-293), are seeded at 20,000 cells per well in a 96-well plate. After 1 day, the cells are treated with test compounds at various concentrations (e.g., 10 nM, 31.6 nM, 100 nM, 316 nM, 1 μM, 3.16 μM, 10 μM, 20 μM, etc.). After a 2-day incubation period, the CellTiter-Glo 2.0 assay is performed according to the kit manufacturer's protocol. […] The contents are mixed for 2 minutes on an orbital shaker to induce cell lysis, and incubated for 10 minutes at room temperature, following which the luminescent signal is measured using a microplate reader. […] The cytotoxic effect of test compounds at different concentrations is calculated by subtracting from 1 the ratio of the luminescence signal of the compound-treated sample to that of the no-compound, solvent only (DMSO)-treated sample. […] The IC50 values for the cytotoxic effect of each test compound in HepG2 cells are determined by plotting a dose-response curve to calculate the concentration of test compound that produces half of the maximum cytotoxic effect. […]

HepG2 [2] = assay: ApoTox-Glo Triplex assay (live-dead ratio), HepG2; format: cell-based; conditions: Homo sapiens, 48 h, HepG2, 2-day incubation
Description: (§3) The effects of test compounds on cell viability and apoptosis are determined using the ApoTox-Glo Triplex assay kit (Promega G6320) according to the following protocol. The human cancer cell line (e.g., HepG2) and a non-cancer human cell line (e.g., HEK-293), are seeded at 20,000 cells per well in a 96-well plate. After 1 day, the cells are treated with test compounds at various final concentrations (e.g., 10 nM, 31.6 nM, 100 nM, 316 nM, 1 μM, 3.16 μM, 10 μM, 20 μM, etc.). After a 2-day incubation period, the ApoTox-Glo Triplex assay is performed according to the kit manufacturer's protocol. […] After incubation for 30 minutes at 37° C., the fluorescence signal is measured at two wavelength sets (400Ex/505Em) and (485Ex/520Em) to assess live-cell protease activity and dead-cell protease activity respectively. […] After incubation for 30 minutes at room temperature, the luminescent signal is measured using a microplate reader. […]
(§4) The cytotoxic effect of test compounds according to the ApoTox-Glo Triplex assay is calculated as follows. The live-dead ratio is calculated by dividing the fluorescence signal for live-cell protease activity with the fluorescence signal for dead-cell protease activity. […]

MDA-MB-231 = assay: CCK-8 cell viability assay, MDA-MB-231; format: cell-based; conditions: Homo sapiens; CCK-8, MDA-MB-231, 2-day or 3-day incubation, cytotoxic effect
Description: (§1) The effect of test compounds on cell viability is determined using the CCK-8 assay kit (Dojindo CK04-1000) according to the following protocol. The human cancer cell lines (e.g., A549, HepG2, JeKo-1, MDA-MB-231, etc.) and non-cancer human cell lines (e.g., HEK-293, HaCaT, etc.), are seeded at 20,000 cells per well in a 96-well plate. After 1 day, the cells are treated with test compounds at various final concentrations (e.g., 10 nM, 31.6 nM, 100 nM, 316 nM, 1 μM, 3.16 μM, 10 μM, 20 μM, etc.). After a 2-day or 3-day incubation period, 10 μL of CCK-8 solution, which contains the WST-8 dye, is added to each well according to the kit manufacturer's protocol. After incubation for 1-4 hours, the absorbance at 450 nm is measured using a microplate reader. The absorbance at 450 nm measures the amount of WST-8 that is reduced to WST-8 formazan by cellular dehydrogenases, which is directly proportional to the number of living cells. The cytotoxic effect of test compounds at different concentrations is calculated by subtracting from 1 the ratio of absorbance of the compound-treated sample at 450 nm to that of the no-compound, solvent only (DMSO)-treated sample. A higher number indicates a greater cytotoxic effect of the test compound on cells (corresponding to a greater reduction in cellular dehydrogenase activity), and vice versa. The IC50 values for the cytotoxic effect of each test compound in A549, HepG2, JeKo-1, and/or MDA-MB-231 cells are determined by plotting a dose-response curve to calculate the concentration of test compound that produces half of the maximum cytotoxic effect. The cytotoxic effect and IC50 of test compounds are also measured in a non-cancer human cell line (e.g., HEK-293, and/or HaCaT) as a proxy for healthy cells to determine the therapeutic window of the test compounds (i.e., the concentration range at which the test compounds selectively kill cancer cells but not healthy cells). The therapeutic index of a test compound is defined herein as its IC50 in HEK-293 cells divided by its IC50 in HepG2 cells.

[3] = tested on: caspase 3/7 activation in HepG2; assay: ApoTox-Glo Triplex assay, caspase 3/7 activation in HepG2; format: cell-based, human; conditions: vs DMSO
Description: The effects of test compounds on cell viability and apoptosis are determined using the ApoTox-Glo Triplex assay kit (Promega G6320) according to the following protocol. The human cancer cell line (e.g., HepG2) and a non-cancer human cell line (e.g., HEK-293), are seeded at 20,000 cells per well in a 96-well plate. After 1 day, the cells are treated with test compounds at various final concentrations (e.g., 10 nM, 31.6 nM, 100 nM, 316 nM, 1 μM, 3.16 μM, 10 μM, 20 μM, etc.). After a 2-day incubation period, the ApoTox-Glo Triplex assay is performed according to the kit manufacturer's protocol. In brief, 20 μL of viability/cytotoxicity reagent containing both GF-AFC substrate (cell-permeant substrate to measure live-cell protease activity) and bis-AAF-R110 substrate (cell-impermeant substrate to measure dead-cell protease activity) is added to each sample, and briefly mixed by orbital shaking (300-500 rpm for ˜30 seconds). After incubation for 30 minutes at 37° C., the fluorescence signal is measured at two wavelength sets (400Ex/505Em) and (485Ex/520Em) to assess live-cell protease activity and dead-cell protease activity respectively. Following the measurement of the live-cell and dead-cell protease activities, 25 μl of Caspase-Glo 3/7 Reagent containing a luminogenic DEVD-peptide substrate for caspase-3/7 and thermostable luciferase is added to each sample, and briefly mixed by orbital shaking (1300-1500 rpm for ˜30 seconds). After incubation for 30 minutes at room temperature, the luminescent signal is measured using a microplate reader. The luminescent signal directly correlates with caspase-3/7 activity, which is a key indicator of apoptosis.
The fold-change of caspase 3/7 activation is calculated by dividing the luminescence signal of the compound-treated sample with that of the no-compound, solvent only (DMSO)-treated sample.

MYC protein [4] = assay: MYC HTRF assay, MYC protein level in human cell lines; format: cell-based; conditions: about 20 μM, 2-day incubation, human cell lines (e.g., A549, HepG2), vs DMSO-treated sample
Description: The MYC homogenous time-resolved fluorescence (HTRF) assay kit (CisBio/Perkin Elmer 63ADK053PEG) is used to quantify the level of MYC protein in human cell lines (e.g., A549, HepG2) following treatment with test compounds, according to the following protocol. Human cells cultured in DMEM-10% FBS media are seeded at 20,000 cells per well in a 96-well plate. After 1 day, the cells are treated with test compounds at a final concentration of about 20 μM. After a 2-day incubation period, the supernatant is removed from the wells and the HTRF assay is carried out according to the kit manufacturer's protocol. In brief, lysis buffer #4 is added to create cell lysates. 10 μL of cell lysate is added to 10 μL of premixed antibody solution (anti-human My c-Eu cryptate antibody and anti-human Myc-d2 antibody) prepared in detection buffer #3 in a 384-well low-volume white-walled plated. After 3 h of incubation, fluorescence readings are taken at the emission wavelengths of donor and acceptor fluorophores (620 nm and 665 nm respectively) using a HTRF-compatible plate reader. The ratio of acceptor and donor fluorescence emission signals for each sample is calculated by dividing the fluorescence signal at 665 nm by the signal at 620 nm, and further normalized by dividing with the concentration of total protein in that sample as determined by the BCA assay. The values so obtained are presented as a percentage of that of the no-compound, solvent only (DMSO)-treated samples. A lower percentage of MYC protein in a sample with respect to the DMSO-treated sample indicates greater percentage reduction in MYC protein level due to the test compound, and vice versa.

A549 = assay: CCK-8 cell viability assay, A549; format: cell-based; conditions: Homo sapiens; CCK-8, A549, 2-day or 3-day incubation, cytotoxic effect
Description: The effect of test compounds on cell viability is determined using the CCK-8 assay kit (Dojindo CK04-1000) according to the following protocol. The human cancer cell lines (e.g., A549, HepG2, JeKo-1, MDA-MB-231, etc.) and non-cancer human cell lines (e.g., HEK-293, HaCaT, etc.), are seeded at 20,000 cells per well in a 96-well plate. After 1 day, the cells are treated with test compounds at various final concentrations (e.g., 10 nM, 31.6 nM, 100 nM, 316 nM, 1 μM, 3.16 μM, 10 μM, 20 μM, etc.). After a 2-day or 3-day incubation period, 10 μL of CCK-8 solution, which contains the WST-8 dye, is added to each well according to the kit manufacturer's protocol. After incubation for 1-4 hours, the absorbance at 450 nm is measured using a microplate reader. The absorbance at 450 nm measures the amount of WST-8 that is reduced to WST-8 formazan by cellular dehydrogenases, which is directly proportional to the number of living cells. The cytotoxic effect of test compounds at different concentrations is calculated by subtracting from 1 the ratio of absorbance of the compound-treated sample at 450 nm to that of the no-compound, solvent only (DMSO)-treated sample. […]

MYC protein [5] = assay: Western blot of MYC protein in human cancer cell lines; format: cell-based; conditions: about 1 μM, 2-day incubation, e.g., A549 or HepG2, GAPDH loading control, vs DMSO
Description: The level of reduction of MYC protein following treatment with test compounds is also assessed by Western blot according to the following protocol. The human cancer cell lines (e.g., A549 or HepG2) are seeded at 20,000 cells per well in a 96-well plate. After 1 day, the cells are treated with test compounds at a final concentration of about 1 μM. After a 2-day incubation period, the supernatant is removed from the wells and RIPA buffer is added to create cell lysates. The lysates are analyzed by Western blot and probed with a MYC-specific antibody (e.g., Proteintech 10828-1-AP) together with a GAPDH-specific antibody (e.g., Proteintech 10494-1-AP) to serve as loading control. The intensities of Western blot bands are quantified by FIJI (Image J). The relative expression value of MYC following treatment with a test compound is calculated by dividing the intensity of the MYC band of the sample with the intensity of its own GAPDH band. The value so obtained is presented as a percentage of that of the no-compound, solvent only (DMSO)-treated sample. A lower percentage of MYC protein in a sample with respect to the DMSO-treated sample indicates greater percentage reduction in MYC protein level due to the test compound, and vice versa.

HEK-293 [6] = assay: ApoTox-Glo Triplex assay (live-dead ratio), HEK-293; format: cell-based; conditions: Homo sapiens, HEK293, 48 h, HEK-293, 2-day incubation
Description: as §3, §4

JeKo-1 = assay: CCK-8 cell viability assay, JeKo-1; format: cell-based; conditions: Homo sapiens; CCK-8, JeKo-1, 2-day or 3-day incubation, cytotoxic effect
Description: as §1

HEK-293 [7] = assay: CellTiter-Glo 2.0 cell viability assay, HEK-293; format: cell-based; conditions: Homo sapiens, HEK293, 48 h; CellTiter-Glo 2.0, HEK-293, 2-day incubation
Description: as §2

Cc1nc(C)c(-c2ccc(=O)n(CC3CCN(c4ncnc5ncccc45)CC3)n2)s1 [6-(2,4-dimethylthiazol-5-yl)-2-((1-(pyrido[2,3-d]pyrimidin-4-yl)piperidin-4-yl)methyl)pyridazin-3(2H)-one]
IC50 (HepG2 [1]): 100 nM
IC50 (HepG2 [2]): 100 nM
IC50 (MDA-MB-231): 800 nM
Fold-change of caspase 3/7 activation ([3]; HepG2, compound concentration 10 nM): 1.245
Fold-change of caspase 3/7 activation ([3]; HepG2, compound concentration 31.6 nM): 1.204
Fold-change of caspase 3/7 activation ([3]; HepG2, compound concentration 100 nM): 0.853
Fold-change of caspase 3/7 activation ([3]; HepG2, compound concentration 316 nM): 0.586
Fold-change of caspase 3/7 activation ([3]; HepG2, compound concentration 1000 nM): 0.420
Fold-change of caspase 3/7 activation ([3]; HepG2, compound concentration 3160 nM): 0.371
Fold-change of caspase 3/7 activation ([3]; HepG2, compound concentration 10000 nM): 0.308
Fold-change of caspase 3/7 activation ([3]; HepG2, compound concentration 20000 nM): 0.280
% reduction of MYC protein (MYC protein [4]): 72%
IC50 (A549): 1300 nM
% reduction of MYC protein (MYC protein [5]): 67%
IC50 (HEK-293 [6]): 35900 nM
IC50 (JeKo-1): 400 nM
IC50 (HEK-293 [7]): 72900 nM
